15 molecules from patent US10150760B2, “Compounds for use in preparing heterocyclic triazole agonists of the APJ receptor” (AMGEN INC., priority 2016, dated 2018) can be followed below.

Chain of human APJ receptor (P35414 whole entry): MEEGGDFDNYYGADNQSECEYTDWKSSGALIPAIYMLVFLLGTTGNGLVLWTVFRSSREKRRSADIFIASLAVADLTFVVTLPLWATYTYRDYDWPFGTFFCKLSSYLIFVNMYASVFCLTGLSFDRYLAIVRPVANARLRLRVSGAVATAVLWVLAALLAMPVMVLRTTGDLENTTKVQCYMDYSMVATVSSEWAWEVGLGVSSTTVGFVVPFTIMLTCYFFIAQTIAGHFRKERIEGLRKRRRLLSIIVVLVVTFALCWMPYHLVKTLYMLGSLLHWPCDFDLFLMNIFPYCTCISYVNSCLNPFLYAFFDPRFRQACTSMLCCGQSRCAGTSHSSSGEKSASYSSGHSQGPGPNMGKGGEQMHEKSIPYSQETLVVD

The target of this assay is human APJ receptor (Homo sapiens (Human), UniProt P35414). Briefly: [35S]GTPγS binding assay on membranes from CHO cells stably expressing human APJ receptor. It is filed as biochemical. Particulars: read-out: Activity hAPJ SPA EC50 IP. The procedure, abridged:
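Agonist-driven [35S]GTPγS (0.2 nM) binding was measured over 90 min at room temperature on human APJ-expressing CHO membranes with bead capture, in buffer containing 3 μM GDP, 200 mM NaCl and 5 mM MgCl2 (pH 7.5). Excess unlabelled GTPγS (100 μM) gave nonspecific signal; EC50 from non-linear fits.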
In general terms: Binding of GTPγS marks nucleotide exchange on a G protein.
For the molecule `COc1cccc(OC)c1-n1c(NS(=O)(=O)[C@@H](C)[C@H](OC)c2ncc(Cl)cn2)nnc1[C@H]1CCO[C@H]1C` (single isomer, unassigned) [Example 116.0, (1R,2S)-1-(5-chloropyrimidin-2-yl)-N-(4-(2,6-dimethoxyphenyl)-5-((2R,3S)-2-methyltetrahydrofuran-3-yl)-4H-1,2,4-triazol-3-yl)-1-methoxypropane-2-sulfonamide or (1R,2S)-1-(5-chloropyrimidin-2-yl)-N-(4-(2,6-dimethoxyphenyl)-5-((2S,3R)-2-methyltetrahydrofuran-3-yl)-4H-1,2,4-triazol-3-yl)-1-methoxypropane-2-sulfonamide], the EC50 – broadly, the concentration that produces a half-maximal response – was determined as 190 nM.

With `COc1cccc(OC)c1-n1c(NS(=O)(=O)[C@@H](C)[C@H](C)c2ncc(Cl)cn2)nnc1[C@H]1CCO[C@@H]1C` (single isomer, unassigned) [Example 117.0, (2S,3R)-3-(5-chloropyrimidin-2-yl)-N-(4-(2,6-dimethoxyphenyl)-5-((2R,3R)-2-methyltetrahydrofuran-3-yl)-4H-1,2,4-triazol-3-yl)butane-2-sulfonamide or (2S,3R)-3-(5-chloropyrimidin-2-yl)-N-(4-(2,6-dimethoxyphenyl)-5-((2S,3S)-2-methyltetrahydrofuran-3-yl)-4H-1,2,4-triazol-3-yl)butane-2-sulfonamide], the EC50 came to 49 nM.

For `COc1cccc(OC)c1-n1c(NS(=O)(=O)[C@@H](C)[C@H](C)c2ncc(Cl)cn2)nnc1[C@@H]1CCO[C@@H]1C` (single isomer, unassigned) [Example 118.0, (2S,3R)-3-(5-chloropyrimidin-2-yl)-N-(4-(2,6-dimethoxyphenyl)-5-((2R,3S)-2-methyltetrahydrofuran-3-yl)-4H-1,2,4-triazol-3-yl)butane-2-sulfonamide or (2S,3R)-3-(5-chloropyrimidin-2-yl)-N-(4-(2,6-dimethoxyphenyl)-5-((2S,3R)-2-methyltetrahydrofuran-3-yl)-4H-1,2,4-triazol-3-yl)butane-2-sulfonamide], the concentration for a half-maximal effect (EC50) worked out at 270 nM.

As for `COc1cccc(OC)c1-n1c(NS(=O)(=O)[C@@H](C)[C@H](C)c2ncc(Cl)cn2)nnc1[C@@H]1CCO[C@@H]1C` (single isomer, unassigned) [Example 119.0, (2S,3R)-3-(5-chloropyrimidin-2-yl)-N-(4-(2,6-dimethoxyphenyl)-5-((2R,3S)-2-methyltetrahydrofuran-3-yl)-4H-1,2,4-triazol-3-yl)butane-2-sulfonamide or (2S,3R)-3-(5-chloropyrimidin-2-yl)-N-(4-(2,6-dimethoxyphenyl)-5-((2S,3R)-2-methyltetrahydrofuran-3-yl)-4H-1,2,4-triazol-3-yl)butane-2-sulfonamide], the concentration giving a half-maximal response (EC50) turned out to be 160 nM.

As for `COc1cccc(OC)c1-n1c(NS(=O)(=O)[C@@H](C)[C@H](C)c2ncc(C)cn2)nnc1[C@H]1CCO[C@@H]1C` (single isomer, unassigned) [Example 120.0, (2S,3R)-N-(4-(2,6-dimethoxyphenyl)-5-((2S,3S)-2-methyltetrahydrofuran-3-yl)-4H-1,2,4-triazol-3-yl)-3-(5-methylpyrimidin-2-yl)butane-2-sulfonamide or (2S,3R)-N-(4-(2,6-dimethoxyphenyl)-5-((2R,3R)-2-methyltetrahydrofuran-3-yl)-4H-1,2,4-triazol-3-yl)-3-(5-methylpyrimidin-2-yl)butane-2-sulfonamide], the EC50 stood at 270 nM.

On to `COc1cccc(OC)c1-n1c(NS(=O)(=O)[C@@H](C)[C@H](C)c2ncc(C)cn2)nnc1[C@@H]1CCO[C@@H]1C` (single isomer, unassigned) [Example 121.0, (2S,3R)-N-(4-(2,6-dimethoxyphenyl)-5-((2R,3S)-2-methyltetrahydrofuran-3-yl)-4H-1,2,4-triazol-3-yl)-3-(5-methylpyrimidin-2-yl)butane-2-sulfonamide or (2S,3R)-N-(4-(2,6-dimethoxyphenyl)-5-((2S,3R)-2-methyltetrahydrofuran-3-yl)-4H-1,2,4-triazol-3-yl)-3-(5-methylpyrimidin-2-yl)butane-2-sulfonamide], for which the concentration for a half-maximal effect (EC50) amounted to 880 nM.

Consider `COc1cccc(OC)c1-n1c(NS(=O)(=O)[C@@H](C)[C@H](C)c2ncc(C)cn2)nnc1[C@H]1CCO[C@@H]1C` (single isomer, unassigned) [Example 122.0, (2S,3R)-N-(4-(2,6-dimethoxyphenyl)-5-((2S,3S)-2-methyltetrahydrofuran-3-yl)-4H-1,2,4-triazol-3-yl)-3-(5-methylpyrimidin-2-yl)butane-2-sulfonamide or (2S,3R)-N-(4-(2,6-dimethoxyphenyl)-5-((2R,3R)-2-methyltetrahydrofuran-3-yl)-4H-1,2,4-triazol-3-yl)-3-(5-methylpyrimidin-2-yl)butane-2-sulfonamide], for which the EC50 was determined as 930 nM.

With `COc1cccc(OC)c1-n1c(NS(=O)(=O)[C@@H](C)[C@H](C)c2ncc(C)cn2)nnc1[C@@H]1CCO[C@@H]1C` (single isomer, unassigned) [Example 123.0, (2S,3R)-N-(4-(2,6-dimethoxyphenyl)-5-((2R,3S)-2-methyltetrahydrofuran-3-yl)-4H-1,2,4-triazol-3-yl)-3-(5-methylpyrimidin-2-yl)butane-2-sulfonamide or (2S,3R)-N-(4-(2,6-dimethoxyphenyl)-5-((2S,3R)-2-methyltetrahydrofuran-3-yl)-4H-1,2,4-triazol-3-yl)-3-(5-methylpyrimidin-2-yl)butane-2-sulfonamide], the EC50 turned out to be 700 nM.

As for `CO[C@H](c1ncc(Cl)cn1)[C@H](C)S(=O)(=O)Nc1nnc([C@H]2CCOC2)n1C1(C)CC1` (single isomer, unassigned) [Example 124.0, (1R,2S)-1-(5-chloropyrimidin-2-yl)-1-methoxy-N-(4-(1-methylcyclopropyl)-5-((R)-tetrahydrofuran-3-yl)-4H-1,2,4-triazol-3-yl)propane-2-sulfonamide or (1R,2S)-1-(5-chloropyrimidin-2-yl)-1-methoxy-N-(4-(1-methylcyclopropyl)-5-((S)-tetrahydrofuran-3-yl)-4H-1,2,4-triazol-3-yl)propane-2-sulfonamide], the concentration giving a half-maximal response (EC50) is 440 nM.

As to `CO[C@H](c1ncc(Cl)cn1)[C@H](C)S(=O)(=O)Nc1nnc([C@H]2CCOC2)n1C1(C)CC1` (single isomer, unassigned) [Example 125.0, (1R,2S)-1-(5-chloropyrimidin-2-yl)-1-methoxy-N-(4-(1-methylcyclopropyl)-5-((R)-tetrahydrofuran-3-yl)-4H-1,2,4-triazol-3-yl)propane-2-sulfonamide or (1R,2S)-1-(5-chloropyrimidin-2-yl)-1-methoxy-N-(4-(1-methylcyclopropyl)-5-((S)-tetrahydrofuran-3-yl)-4H-1,2,4-triazol-3-yl)propane-2-sulfonamide], the concentration for a half-maximal effect (EC50) came out at 540 nM.

As to `CO[C@H](c1ncc(Cl)cn1)[C@H](C)S(=O)(=O)Nc1nnc([C@H]2CCCOC2)n1C1(C)CC1` (single isomer, unassigned) [Example 126.0, (1R,2S)-1-(5-chloropyrimidin-2-yl)-1-methoxy-N-(4-(1-methylcyclopropyl)-5-((R)-tetrahydro-2H-pyran-3-yl)-4H-1,2,4-triazol-3-yl)propane-2-sulfonamide or (1R,2S)-1-(5-chloropyrimidin-2-yl)-1-methoxy-N-(4-(1-methylcyclopropyl)-5-((S)-tetrahydro-2H-pyran-3-yl)-4H-1,2,4-triazol-3-yl)propane-2-sulfonamide], the EC50 came to 480 nM.

With `CO[C@H](c1ncc(Cl)cn1)[C@H](C)S(=O)(=O)Nc1nnc([C@H]2CCCOC2)n1C1(C)CC1` (single isomer, unassigned) [Example 127.0, (1R,2S)-1-(5-chloropyrimidin-2-yl)-1-methoxy-N-(4-(1-methylcyclopropyl)-5-((R)-tetrahydro-2H-pyran-3-yl)-4H-1,2,4-triazol-3-yl)propane-2-sulfonamide or (1R,2S)-1-(5-chloropyrimidin-2-yl)-1-methoxy-N-(4-(1-methylcyclopropyl)-5-((S)-tetrahydro-2H-pyran-3-yl)-4H-1,2,4-triazol-3-yl)propane-2-sulfonamide], the half-maximal effective concentration (EC50) was determined as 7.7 nM.

With `CO[C@H](c1cnc(C)cn1)[C@H](C)S(=O)(=O)Nc1nnc([C@H]2CCOC2)n1C1(C)CC1` (single isomer, unassigned) [Example 128.0, (1R,2S)-1-methoxy-N-(4-(1-methylcyclopropyl)-5-((R)-tetrahydrofuran-3-yl)-4H-1,2,4-triazol-3-yl)-1-(5-methylpyrazin-2-yl)propane-2-sulfonamide or (1R,2S)-1-methoxy-N-(4-(1-methylcyclopropyl)-5-((S)-tetrahydrofuran-3-yl)-4H-1,2,4-triazol-3-yl)-1-(5-methylpyrazin-2-yl)propane-2-sulfonamide], the EC50 was determined as 790 nM.

As to `CO[C@H](c1cnc(C)cn1)[C@H](C)S(=O)(=O)Nc1nnc([C@H]2CCOC2)n1C1(C)CC1` (single isomer, unassigned) [Example 129.0, (1R,2S)-1-methoxy-N-(4-(1-methylcyclopropyl)-5-((R)-tetrahydrofuran-3-yl)-4H-1,2,4-triazol-3-yl)-1-(5-methylpyrazin-2-yl)propane-2-sulfonamide or (1R,2S)-1-methoxy-N-(4-(1-methylcyclopropyl)-5-((S)-tetrahydrofuran-3-yl)-4H-1,2,4-triazol-3-yl)-1-(5-methylpyrazin-2-yl)propane-2-sulfonamide], the half-maximal effective concentration (EC50) stood at 2100 nM.

With `CO[C@H](c1cnc(C)cn1)[C@H](C)S(=O)(=O)Nc1nnc([C@H]2CCCOC2)n1C1(C)CC1` (single isomer, unassigned) [Example 130.0, (1R,2S)-1-methoxy-N-(4-(1-methylcyclopropyl)-5-((R)-tetrahydro-2H-pyran-3-yl)-4H-1,2,4-triazol-3-yl)-1-(5-methylpyrazin-2-yl)propane-2-sulfonamide or (1R,2S)-1-methoxy-N-(4-(1-methylcyclopropyl)-5-((S)-tetrahydro-2H-pyran-3-yl)-4H-1,2,4-triazol-3-yl)-1-(5-methylpyrazin-2-yl)propane-2-sulfonamide], the EC50 is 1800 nM.
